Ends that are not written are not given here.
Test system: spontaneous contractions of the rat uterus
Test: rat uterine contractility assay (Wiqvist & Paul)
Assay type: cell-based
Protocol: Using the above conditions chain combination yields from 1.5 to 6.0% have been achieved as measured by biological activity in the rat uterine contractility assay of Wiqvist & Paul (Acta Endocrinol., 29, 135-136, 1958).
Human relaxin H2 [S-thioethyl Cys^10,11,15 ] A(1-24) (4.2 mg dry wt., 2.4 mg peptide by amino acid analysis, 0.84 μmole) was dissolved in 500 μl of 0.1M glycine buffer pH 10.5 in a 3 ml stoppered plastic centrifuge tube. Human relaxin H2 [S-sulfo Cys^10,11 ] B(-1-24) (1.60 mg, 1.60 mg peptide by amino acid analysis, 0.33 μmole) dissolved in 200 μl of 0.1M glycine buffer pH 10.5 was added and the mixture agitated. An aliquot (23.0 μl, 2.21 μmole DTT) of a stock solution of dithithreitol (DTT) made up in 0.1M glycine buffer pH 10.5 (0.96 μmole DTT in 10 μl) was added to the peptide solution and following a brief agitation the reaction mixture was allowed to stand at 4° C. for 24 hours open to the air. The mixture was then centrifuged and aliquots of the supernatant solution tested for relaxin biological activity in the rat uterine contractility assay.
The synthetic S-sulfonated and S-thioethyl H2 human relaxin A(1-24) peptides were coupled to S-thioethyl H2 human relaxin B(-1-32) using the same chain combination procedures described previously for the shortened B-chain (-1-24). […]

In the case of “hRLX A(1-24)-B(-1-32): Authentic human relaxin H2: synthetic A chain (1-24) combined with full length B chain (-1-32) (Relaxin B chain DSWMEEVIKLCGRELVRAQIAICGMSTWS; Relaxin A chain QLYSALANKCCHVGCTKRSLARFC; ends and bridges not checked; cysteine pairing not given here; UniProt P04090 25-53; P04090 162-185, looked up)”, the “inhibition of uterine contractions by a 100 μl aliquot” value (100 μl aliquot of chain combination mixture, compared to native pig relaxin A22 B31 standard) is reported as “completely inhibited uterine contractions” and the “inhibition of the spontaneous contractions of the rat uterus by aliquots of the chain combination reaction mixture” value (aliquots of supernatant of chain combination mixture) is reported as “inhibited the spontaneous contractions of the rat uterus in a dose-related manner”.
